How the values were obtained:
C. neoformans = assay: Inhibition of growth of Cryptococcus neoformans, Example 2 antifungal assay; assay type: cell-based; settings: ½ strength PDB, 30° C., A595
Description: (§1) The inhibitory effects of the plant defensins on the growth of Candida albicans, Aspergillus fumigatus (obtained from the National Mycology Reference Centre, South Australia Pathology at the Women's and Children's Hospital, Adelaide, Australia), C. glabrata, C. tropicalis, A. flavus, A. niger, A. fumigants, Cryptococcus neoformans and C. gattii (obtained from Dee Carter, University of Sydney, New South Wales, Australia) are measured essentially as described by Broekaert et al. (1990) FEMS Microbiol Lett 69:55-59.
(§2) Spores of A. flavus. A. niger and A. fumigatus are isolated from sporulating fungus growing on ½ strength Sabouraud dextrose agar. Spores were removed from the plates by the addition of ½ strength potato dextrose broth (PDB). C. albicans, C. glabrata, C. tropicalis, C. neoformans and C. gattii cells are grown in Yeast Peptone Broth (YPD) for 16 h. Spore and cell concentrations are measured using a hemocytometer.
(§3) Antifungal assays are conducted in 96 well microtitre plates essentially as herein described. Wells are loaded with 20 μL of filter sterilized (0.22 μm syringe filter, Millipore) defensin (10× stock for each final concentration) or water and 80 μL of 5×10^4 spores/mL (A. flavus, A. niger, A. fumigatus), 5,000 cells/mL (C. albicans, C. glabrata, C. tropicalis) or 1×10^6 cells/mL (C. neoformans, C. gattii) in ½ strength PDB. The plates are incubated at 30° C. Fungal growth is assayed by measuring optical density at 595 nm (A595) using a microtitre plate reader (SpectraMax Pro M2; Molecular Devices. Growth is allowed to proceed until the optical density (OD) of the fungus in the absence of any test defensin reached an OD of 0.2. Each test is performed in duplicate.

A. fumigatus = assay: Inhibition of growth of Aspergillus fumigatus, Example 2 antifungal assay; assay type: cell-based; settings: ½ strength PDB, 30° C., A595
Description: as §1, §2, §3

T. interdigitale = assay: Inhibition of growth of T. interdigitale by plant defensins (microtitre A595 antifungal assay); assay type: cell-based, Trichophyton interdigitale; settings: ½ strength PDB, 30° C.
Description: (§4) The inhibitory effects of the plant defensins on the growth of Trichophyton rubrum, T. interdigitale, Microsporum fulvum and C. albicans (all obtained from the National Mycology Reference Centre, South Australia Pathology at the Women's and Children's Hospital, Adelaide, Australia) are measured essentially as described by Broekaert et al. (1990) FEMS Microbiol Lett 69:55-59.
(§5) Spores of T. rubrum, T. interdigitale and M. fulvum are isolated from sporulating fungus growing on ½ strength Sabouraud dextrose agar. Spores were removed from the plates by the addition of ½ strength potato dextrose broth (PDB). C. albicans cells are grown in Yeast Peptone Broth (YPD) for 16 h. Spore and cell concentrations are measured using a hemocytometer.
as §3, with “Ξ m” for “μm”, “(T. rubrum, T. interdigitale, M. fulvum) or” for “(A. flavus, A. niger, A. fumigatus),”, “albicans)” for “albicans, C. glabrata, C. tropicalis) or 1×10^6 cells/mL (C. neoformans, C. gattii)”

T. albicans = assay: Inhibition of growth of C. albicans by plant defensins, Example 1 (microtitre A595 antifungal assay); assay type: cell-based; settings: Table 3; ½ strength PDB, 30° C., A595
Description: as §4, §5
as §3, with “Ξ m” for “μm”, “(T. rubrum, T. interdigitale, M. fulvum) or” for “(A. flavus, A. niger, A. fumigatus),”, “albicans)” for “albicans, C. glabrata, C. tropicalis) or 1×10^6 cells/mL (C. neoformans, C. gattii)”

C. gattii = assay: Inhibition of growth of C. gattii, Example 2 antifungal assay; assay type: cell-based; settings: ½ strength PDB, 30° C., A595
Description: as §1, §2, §3

[1] = tested on: Trichophyton rubrum, T. interdigitale, Microsporum fulvum and C. albicans; assay: Inhibition assays of Example 1, summary across the range of fungal pathogens; assay type: cell-based; settings: summary of Table 3, at the concentrations tested
Description: as §4, §5
as §3, with “Ξ m” for “μm”, “(T. rubrum, T. interdigitale, M. fulvum) or” for “(A. flavus, A. niger, A. fumigatus),”, “albicans)” for “albicans, C. glabrata, C. tropicalis) or 1×10^6 cells/mL (C. neoformans, C. gattii)”

[2] = tested on: clinical isolates of T. rubrum (14-01, 14-02, 14-03, 13-04); assay: Inhibition of growth of clinical isolates of T. rubrum (FIG. 2); assay type: cell-based, Trichophyton rubrum; settings: all four clinical isolates
Description: FIG. 2(A) is a graphical representations showing the effect of the plant defensins NaD1 (dashed line) and HXL008 (solid line) on the growth of clinical isolate 14-01 of Trichophyton rubrum in vitro. Fungal growth was measured by the increase in optical density at 595 nm (A595) achieved 72 hours after inoculation of the growth medium and is plotted as a percentage of growth relative to a no-protein control (vertical axis) versus protein concentration (μg/mL, horizontal axis).
FIG. 2(B) is a graphical representation showing the effect of the plant defensins NaD1 (dashed line) and HXL008 (solid line) on the growth of clinical isolate 14-02 of Trichophyton rubrum in vitro. Fungal growth was measured by the increase in optical density at 595 nm (A595) achieved 72 hours after inoculation of the growth medium and is plotted as a percentage of growth relative to a no-protein control (vertical axis) versus protein concentration (μg/mL, horizontal axis). […]
Antifungal assays are conducted in 96 well microtitre plates essentially as herein described. […] Fungal growth is assayed by measuring optical density at 595 nm (A595) using a microtitre plate reader (SpectraMax Pro M2; Molecular Devices. Growth is allowed to proceed until the optical density (OD) of the fungus in the absence of any test defensin reached an OD of 0.2. Each test is performed in duplicate.

HXL008: Class I plant defensin from Picramnia pentandra (KVCTKPSKFFKGLCGTDGACTTACRKEGLHSGYCQLKGFLNSVCVCRKHC; HXL008 Picramnia pentandra)
IC50 against C. neoformans (C. neoformans): 2.5 µg/mL | IC50 against A. fumigatus (A. fumigatus): 7.5 µg/mL | IC50 against T. interdigitale (T. interdigitale): 3.5 µg/mL | IC50 against T. albicans (T. albicans): 20 µg/mL | IC50 against C. gattii (C. gattii): 12 µg/mL | Activity across the range of fungal pathogens [1]: most effective | Growth inhibition of T. rubrum clinical isolates compared with NaD1 [2]: inhibited growth at a lower concentration than NaD1

Reference: US20180193412A1, “Method of In Vivo Treatment” (Hexima Limited, priority 2015, published 2018)
